Reference: ChEMBL document CHEMBL1122099, “Antiallergics: 3-(1H-tetrazol-5-yl)-4H-pyrimido[2,1-b]benzothiazol-4-ones” (1982)

Legend:
[1] = test system: Rattus norvegicus; test: Tested for the antiallergic activity in rat passive cutaneous anaphylaxis (PCA) test; po; format: functional
[2] = test system: Rattus norvegicus; test: Percent inhibition at a concentration of 25 mg/kg in rat passive cutaneous anaphylaxis (PCA) test; format: functional
[3] = test system: Rattus norvegicus; test: Percent inhibition at a concentration of 0.02 mg/kg in methacholine induced bronchospasm in rat intraduodenally; format: functional; conditions: route intraduodenal
[4] = test system: Rattus norvegicus; test: Percent inhibition at a concentration of 0.1 mg/kg in methacholine induced bronchospasm in rat; format: functional
[5] = test system: Rattus norvegicus; test: Percent inhibition at a concentration of 1.0 mg/kg in methacholine induced bronchospasm in rat; format: functional
[6] = test system: Rattus norvegicus; test: Percent inhibition at a concentration of 10.0 mg/kg in methacholine induced bronchospasm in rat; format: functional
[7] = species: Rattus norvegicus; test: Tested for the bronchodilator activity by measuring inhibition of allergen induced bronchospasm in rat intra duodenally

**Q.** `N=c1c(-c2nnn[nH]2)cnc2sc3ccccc3n12` was tested. Which ED50 [1] did it give?
**A.** Its ED50 is 8.1 mg/kg.

**Q.** `Cc1cc(C)c2sc3ncc(-c4nnn[nH]4)c(=O)n3c2c1` was tested. Which ED50 [1] did it give?
**A.** The ED50 was 1.96 mg/kg.

**Q.** With `Cc1cc2sc3ncc(-c4nnn[nH]4)c(=O)n3c2cc1C` as the compound, how does the inhibition in vivo at 25 mg/kg [2] read?
**A.** The inhibition in vivo at 25 mg/kg was 35%.

**Q.** Which ED50 [1] does the source give for `O=c1c(-c2nnn[n-]2)cnc2sc3ccccc3n12.[K+]` here?
**A.** Its ED50 is 0.08 mg/kg.

**Q.** And the inhibition in vivo at 0.02 mg/kg [3]?
**A.** The inhibition in vivo at 0.02 mg/kg was 13.2%.

**Q.** What about the inhibition in vivo at 0.1 mg/kg [4] of the same compound?
**A.** The inhibition in vivo at 0.1 mg/kg was 37.4%.

**Q.** And the inhibition in vivo at 1 mg/kg [5]?
**A.** The inhibition in vivo at 1 mg/kg was 59.3%.

**Q.** What about the inhibition in vivo at 10 mg/kg [6] of the same compound?
**A.** The inhibition in vivo at 10 mg/kg was 61%.

**Q.** And the ED50 [7]?
**A.** The ED50 was 0.38 mg/kg.

**Q.** How did the ED50 [1] turn out when `COc1ccc2c(c1)sc1ncc(-c3nnn[nH]3)c(=O)n12` was run?
**A.** Its ED50 is 1.9 mg/kg.

**Q.** With `O=C([O-])c1cc(=O)c2c(OCC(O)COc3cccc4oc(C(=O)[O-])cc(=O)c34)cccc2o1.[Na+].[Na+]` [CROMOLYN SODIUM] as the compound, how does the ED50 [1] read?
**A.** Its ED50 is 0.3 mg/kg.
